# Tests used:
# male CD mice = experiment: Test of aggressiveness in isolated mice; type: in vivo; settings: Mus musculus, ip, 0.5 h; i.p.; treatment 30 minutes before pairing; 3 minutes observation; read-out: Inhibitory Dose 50 of the number or duration of the attacks
# Source text: This test allows the evaluation of the intraspecies anti-aggressive activity of a product in mice that have been kept in isolation for several months.
# The test uses male CD mice (Charles River) weighing from 22 to 25 g when they arrive at the animal house. On their arrival, the animals are isolated in individual cages made of opaque black polycarbonate (23×14×13 cm) with a grill lid, and are housed for a prolonged period (approximately six months) in the experimentation room.
# The selection of aggressive pairs of mice that will be used for an extended period in the study commences after the animals have been isolated for one month. Once or twice per week a mouse from another cage (intruder) is placed in the cage of a (resident) mouse and the two animals are observed to see if they attack one another (sniffing, pursuing, nicking, biting) during that trial. At the end of the trial (maximum duration 10 minutes), each mouse is isolated again in its own cage. If attacks have occurred, the same pair will be tested again in the next trial; if there have been no attacks, each mouse of that pair will be placed in the presence of another mouse in the subsequent trial. […]
# The test takes place once a week. […] The latent period (in seconds) of the first attack and the number and total duration (in seconds) of the attacks are recorded. […]
# [1] = system: levels of serotonin, dopamine and noradrenaline in cingulate frontal cortex; experiment: Microdialysis experiment in the rat (frontal cortex); type: in vivo; settings: 10 mg/kg subcutaneous, baseline defined as 0%
# Description: Rats are anaesthetised with pentobarbital (60 mg/kg i.p.). They are placed in a Kopf stereotaxic device and the cannula guide is implanted in the cingulate frontal cortex in accordance with the coordinates described in the Paxinos and Watson atlas (1982) as follows: AP=+2.2; L=±0.6; DV=-0.2. The rats are placed in separate cages and are not used in dialysis until 5 days later. […] The probe is perfused at a flow rate of 1 μl/min. with a solution of 147.2 mM NaCl, 4 mM KCl and 2.3 mM CaCl2 adjusted to pH 7.3 with a phosphate buffer (0.1 M). Two hours after implantation, samples are collected every 20 minutes for 4 hours. Three baseline samples are taken before administration of the products to be tested. The rats are left in their individual cages for the whole of the experiment. When the experiment is finished, the rats are decapitated and the brain is removed and frozen in isopentane. Sections of a thickness of 100 μm are cut and stained with cresyl violet, which allows verification of the location of the probes. The simultaneous quantification of dopamine, norepinephrine and serotonin is carried out as follows: 20 μl of dialysis sample are diluted with 20 μl of mobile phase (NaH2 PO4 : 75 mM; EDTA: 20 μM; sodium 1-decanesulphonate: 1 mM; methanol: 17.5%; triethylamine: 0.01%; pH: 5.70) and 33 μl are analysed by HPLC with a reverse phase column thermostatically maintained at 45° C. and are quantified by means of a coulometric detector. The potential of the first electrode of the detector is set at -90 mV (reduction) and the second at +280 mV (oxidation). The mobile phase is injected with a pump at a flow rate of 2 ml/min. The sensitivity limits for dopamine, norepinephrine and serotonin are 0.55 fmole per sample. All the products of the invention are injected subcutaneously in a volume of 1.0 ml/kg. The products are dissolved in distilled water to which a few drops of lactic acid have been added if necessary.
# serotonin reuptake site = biological target: T1, serotonin reuptake site (Rattus norvegicus, UniProt P31652); experiment: Affinity for serotonin reuptake sites ([3H]-paroxetine competition binding); settings: [3H]-paroxetine 1.0 nM, rat frontal cortex membranes, 2 hours at 25° C., pH 7.4; read-out: pKi (-log Ki), affinity for serotonin reuptake sites (converted)
# T1 construct: The membranes are prepared from rat frontal cortex; from tissue; host or cells: rat frontal cortex membranes
# T1 sequence (P31652 whole entry): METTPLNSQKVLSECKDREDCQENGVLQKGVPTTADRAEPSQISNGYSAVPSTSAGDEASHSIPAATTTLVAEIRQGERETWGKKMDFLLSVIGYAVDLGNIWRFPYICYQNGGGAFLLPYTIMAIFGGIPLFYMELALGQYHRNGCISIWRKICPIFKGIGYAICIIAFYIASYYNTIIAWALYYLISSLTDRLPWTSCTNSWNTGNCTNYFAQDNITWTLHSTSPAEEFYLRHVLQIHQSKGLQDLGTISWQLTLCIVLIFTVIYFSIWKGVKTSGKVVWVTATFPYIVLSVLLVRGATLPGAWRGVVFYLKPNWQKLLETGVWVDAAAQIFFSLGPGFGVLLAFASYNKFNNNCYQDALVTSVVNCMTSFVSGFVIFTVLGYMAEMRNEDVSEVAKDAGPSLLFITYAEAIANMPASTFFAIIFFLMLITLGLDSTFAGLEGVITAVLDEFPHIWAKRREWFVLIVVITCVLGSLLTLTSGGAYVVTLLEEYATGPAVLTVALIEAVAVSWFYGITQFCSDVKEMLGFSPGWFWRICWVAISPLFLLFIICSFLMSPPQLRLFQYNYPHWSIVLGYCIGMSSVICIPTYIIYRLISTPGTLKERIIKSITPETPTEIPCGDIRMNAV
# Description: The incubation buffer contains […] TRIS-HCl (pH 7.4), 120 mM NaCl and 5 mM KCl. The non-specific binding is determined using 10 μM citalopram. At the end of the incubation, the incubation medium is filtered and washed three times with 5 ml of cooled buffer. The radioactivity retained on the filters is determined by liquid scintillation counting. The binding isotherms are analysed by non-linear regression to determine the IC50 values. Those values are converted into a dissociation constant (Ki) using the Cheng-Prusoff equation: […]
# The results are expressed in pKi (-log Ki).
smiles,measurement,setting,value
"c1ccc2c(c1)[C@@H]1CNC[C@]21COc1ccc2c(c1)OCO2 (relative stereo) [Example 1, cis-3a-[(3,4-Methylenedioxyphenoxy)methyl]-2,3,3a,7b-tetrahydro-1H-benzo[3,4]cyclobuta[1,2-c]pyrrole]",ED50,male CD mice,< 5 mg/kg
same,"increase in the level of dopamine, maximum % of the effect compared with the baseline level",[1],54.8%±6.4
same,"increase in the level of noradrenaline, maximum % of the effect compared with the baseline level",[1],96.4%±7.8
same,"increase in the level of serotonin, maximum % of the effect compared with the baseline level",[1],226.3%±20.1
same,Ki,serotonin reuptake site,12.6 nM
